{"source": "patent US20060217443A1", "about": "“Method for preventing and/or treating vaginal and vulval infections” (Kimberly-Clark Worldwide, Inc., priority 2005, published 2006)", "key": {"Trichomonas vaginalis": {"tested_on": "Trichomonas vaginalis", "test": "Viable Trichomonas vaginalis cell count under a microscope", "type": "cell-based", "details": "for Inhibitory effect on Trichomonas vaginalis cell counts compared to control: gallic acid 0.11 percent", "procedure": "A sample of Trichomonas vaginalis, the parasite found in trichomonas vaginitis, was obtained from the American Type Culture Collection (ATCC), catalog number 30001. The culture medium was LYI-S-2 medium (ATCC medium 2154).\nA sterile LYI-S-2 medium was prepared according to the manufacturer's instructions, and the pH of this medium was adjusted to pH 6.0 using 1 N HCl. Gallic acid monohydrate (SIGMA-398225 from Signa Aldrich, USA) was dissolved in the LYI-S-2 medium. […] 0.9 milliliter of the gallic acid/LYI-S-2 solution or culture medium only (as control) was added into different culture tubes.\n0.1 milliliter of Trichomonas vaginalis culture suspension, at a concentration of 1×10^6/milliliter, was added to each of the culture tubes, which were then incubated at 35 degrees Celsius on a 15 degree horizontal slant.\nThe viable Trichomonas vaginalis cells in each tube were counted under a microscope after 24 hours.\nThis procedure was repeated twice.\nEssentially the same procedure was performed as described in Example 1, but this time differing concentrations of gallic acid were tested on samples of Trichomonas vaginalis. The gallic acid concentrations that were tested were: 0.11 percent, 0.66 percent and 1.1 percent. More samples in each group were included (n=4), and the effects of the gallic acid over a longer time period were also observed, i.e. after 24 and 48 hours."}, "Candida albicans [1]": {"tested_on": "Candida albicans", "test": "Zone-of-inhibition test, Candida albicans", "type": "cell-based", "procedure": "(§1) A sample of Candida albicans, the yeast found in candidiasis, was also obtained from the American Type Culture Collection (ATCC), catalog number 10231, and was cultured in YM agar (Difco 0712) and YM broth (Difco 0711). A microorganism culture of 10^5 cfu (colony forming units)/milliliter in a 1× phosphate buffered saline (PBS) solution (diluted from 10× PBS LIQUID CONCENTRATE from VWR Cat. No. EM-6507] was prepared for each of Candida albicans and Lactobacillus acidophilus. One milliliter of each solution was plated on proper agar plates, depending on which microorganism was being tested. The agar plates were incubated at 35 degrees Celsius for four hours. Three 4 millimeter diameter wells were then punched into each agar plate. A test sample of 10 mg/ml gallic acid in sterilized 2-N-morpholino ethane sulfonic (MES, pH=4.7) buffer (0.1 M 2-[morpholino]-ethanesulfonic acid, 0.9 percent NaCl, pH 4.7, prepared from BupHTM MES Buffer Saline Pack from Cat. No. 28390, Pierce Biotechnology, Inc., Rockford, Ill.) was added to one well of each plate. […] The plates were incubated overnight at 35 degrees Celsius. The presence of a zone of microorganism inhibition was measured the following day for Candida albicans and Lactobacillus acidophilus activity, respectively."}, "[2]": {"tested_on": "Lactobacillus acidophilus", "test": "Zone-of-inhibition test, Lactobacillus acidophilus", "type": "cell-based", "procedure": "as §1, with “Lactobacillus acidophilus, a desirable bacterium in” for “Candida albicans,”, “vaginal ecosystem,” for “yeast found in candidiasis,”, “4354,” for “10231,”, “ATCC medium 416.” for “YM agar (Difco 0712) and YM broth (Difco 0711).”"}, "Candida albicans [3]": {"tested_on": "Candida albicans", "test": "Inhibition test in solution by measuring optical density, Candida albicans", "type": "cell-based", "details": "gallic acid 5 milligram/milliliter, 24 hours, FIG. 3", "description": "A sample of Candida albicans, the yeast found in candidiasis, was also obtained from the American Type Culture Collection (ATCC), catalog number 10231, and was cultured in YM agar (Difco 0712) and YM broth (Difco 0711). […] Control and gallic acid solutions (0.9 milliliters) were filtered and added into separate culture tubes, and to these were added 0.1 milliliter of either the Candida albicans or Lactobacillus acidophilus suspension at a concentration of around 10^6 cfu/milliliter. The culture tubes were then incubated overnight at 37 degrees Celsius, whereafter the optical density was measured at 2, 4, 6 and 24 hours at 590 nanometers, by pippeting 100 microliters of the control or sample solutions into 96-well microplates, and then using a Molecular Devices of Sunnyvale, Calif. ThermoMax Microplate Reader to obtain the optical density readings at 590 nm wavelengths."}, "[4]": {"tested_on": "Lactobacillus acidophilus", "test": "Inhibition test in solution by measuring optical density, Lactobacillus acidophilus", "type": "cell-based", "details": "gallic acid 5 milligram/milliliter, 24 hours, FIG. 4", "description": "A sample of Lactobacillus acidophilus, a desirable bacterium in the vaginal ecosystem, was also obtained from the American Type Culture Collection (ATCC), catalog number 4354, and was cultured in ATCC medium 416. […] Control and gallic acid solutions (0.9 milliliters) were filtered and added into separate culture tubes, and to these were added 0.1 milliliter of either the Candida albicans or Lactobacillus acidophilus suspension at a concentration of around 10^6 cfu/milliliter. The culture tubes were then incubated overnight at 37 degrees Celsius, whereafter the optical density was measured at 2, 4, 6 and 24 hours at 590 nanometers, by pippeting 100 microliters of the control or sample solutions into 96-well microplates, and then using a Molecular Devices of Sunnyvale, Calif. ThermoMax Microplate Reader to obtain the optical density readings at 590 nm wavelengths."}, "Gardnerella vaginalis": {"tested_on": "Gardnerella vaginalis", "test": "Inhibition test in solution by plate count, Gardnerella vaginalis", "type": "cell-based", "details": "7.5 mg/ml gallic acid", "procedure": "A sample of Gardnerella vaginalis, the pathogenic bacterium found in bacterial vaginosis, was obtained from the American Type Culture Collection (ATCC), catalog number 14018. The culture medium was ATCC medium 70 and Casman's medium (BD 229010) with 5 percent rabbit blood.\nA test compound of Gardnerella vaginalis was prepared in culture media to form a suspension. Control and gallic acid solutions (0.9 milliliters; 7.5 milligram gallic acid/milliliter) were filtered and added into separate culture tubes, and to these were added 0.1 milliliter of the Gardnerella vaginalis suspension at a concentration of around 10^6 cfu/milliliter. The culture tubes were incubated at 37 degrees Celsius for 24 hours.\nThe samples in the culture tubes were then diluted at 1, 10 and 100 times, and 100 microliters of each dilution was plated onto agar plates with WASP (Whitely Automatic Spiral Plate) spiral plating equipment from Don Whitely Scientific Limited, USA. The plates were incubated overnight at 35 degrees Celsius, and the colonies were counted on each plate by either ProtoCol® from Synbiosis, Frederick, Md., USA Whitely Scientific Limited, USA or by hand count."}, "[5]": {"test": "Highest concentration obtainable in water", "type": "physicochemical", "details": "gallic acid monohydrate, only partially water soluble"}, "[6]": {"tested_on": "Lactobacillus acidophilus", "details": "previously shown; cited from earlier work"}, "[7]": {"details": "10 milligram/ml gallic acid or 0.5 percent Benzyl Quats in well, MES buffer pH 4.7, overnight 35 degrees Celsius, n = 2"}, "[8]": {"details": "zone-of-inhibition test, gallic acid 10 mg/ml, Benzyl Quats 0.5 percent"}}, "note": "Where two headings read alike, the source gives them in different places."}
{"smiles": "O=C(O)c1cc(O)c(O)c(O)c1", "note": "[gallic acid, 3,4,5-trihydroxybenzoic acid]", "values": [{"measurement": "Inhibitory effect on Trichomonas vaginalis cell counts compared to control", "setting": "Trichomonas vaginalis; 24 hours, n=4, FIG. 1", "result": 50, "unit": "%"}, {"measurement": "Inhibitory effect on Trichomonas vaginalis cell counts compared to control", "setting": "Trichomonas vaginalis; 48 hours, n=4, FIG. 2", "result": 70, "unit": "%"}, {"measurement": "Live Trichomonas vaginalis cells (in words)", "setting": "Trichomonas vaginalis; gallic acid 0.66 percent, 24 hours, n=4, Example 2", "result": "No live Trichomonas vaginalis cells were observed"}, {"measurement": "Live Trichomonas vaginalis cells (in words)", "setting": "Trichomonas vaginalis; gallic acid 0.66 percent, 48 hours, n=4, Example 2", "result": "No live Trichomonas vaginalis cells were observed"}, {"measurement": "Live Trichomonas vaginalis cells (in words)", "setting": "Trichomonas vaginalis; gallic acid 1.1 percent, 24 hours, Example 1", "result": "no live Trichomonas vaginalis cells were observed"}, {"measurement": "Number of Trichomonas cells, Repeat 2", "setting": "Trichomonas vaginalis; gallic acid 1.1 percent, 24 hours, Example 1, control 1 000 000", "result": 0}, {"measurement": "Number of Trichomonas cells, Repeat 1", "setting": "Trichomonas vaginalis; gallic acid 1.1 percent, 24 hours, Example 1, control 900 000", "result": 0}, {"measurement": "Live Trichomonas vaginalis cells (in words)", "setting": "Trichomonas vaginalis; gallic acid 1.1 percent, 24 hours, n=4, Example 2", "result": "No live Trichomonas vaginalis cells were observed"}, {"measurement": "Live Trichomonas vaginalis cells (in words)", "setting": "Trichomonas vaginalis; gallic acid 1.1 percent, 48 hours, n=4, Example 2", "result": "No live Trichomonas vaginalis cells were observed"}, {"measurement": "Zone of inhibition, Candida albicans", "setting": "Candida albicans [1]; [7]", "result": 5, "unit": "millimeter"}, {"measurement": "Effect on growth of Candida albicans (in words)", "setting": "Candida albicans [1]; [8]", "result": "selectively inhibited Candida albicans"}, {"measurement": "Zone of inhibition, Lactobacillus acidophilus", "setting": "[2]; [7]", "result": 0, "unit": "millimeter"}, {"measurement": "Effect on growth of Lactobacillus acidophilus (in words)", "setting": "[2]; [8]", "result": "did not affect the growth of Lactobacillus acidophilus"}, {"measurement": "Growth of Candida albicans by optical density at 590 nm (in words)", "setting": "Candida albicans [3]", "result": "significantly inhibit the growth of Candida albicans"}, {"measurement": "Growth of Lactobacillus acidophilus by optical density at 590 nm (in words)", "setting": "[4]", "result": "did not show any significant inhibition"}, {"measurement": "Gardnerella vaginalis plate count, Average", "setting": "Gardnerella vaginalis; 24 hours treatment, n = 4, negative control 1.81E+08, p < 0.05", "result": "*3.43E+04"}, {"measurement": "inhibition at 7500 µg/mL", "setting": "Gardnerella vaginalis; Gardnerella vaginalis, 24 hours of treatment, read-out: Inhibition on the growth of Gardnerella vaginalis compared to control group", "result": "> 100", "unit": "%"}, {"measurement": "Highest concentration of gallic acid that could be obtained in water", "setting": "[5]", "result": "1.1 percent (g/100 milliliter)"}, {"measurement": "Effect on growth of Lactobacillus acidophilus (in words)", "setting": "[6]", "result": "does not affect the growth of Lactobacillus acidophilus"}]}
